These are literature values, as cited in US8968778B2, “Threo-DOPS controlled release formulation” (Lundbeck NA Ltd., priority 2003, dated 2015).

In data set [1] the test system is microvessel preparations.

As to `N[C@H](C(=O)O)[C@H](O)c1ccc(O)c(O)c1` [L-threo-DOPS], the “Time that increased plasma levels of both molecules (L-threo-DOPS and NE) remain” value (after oral administration of L-threo-DOPS) is given as “at least 12 hours”. The “Time of peak plasma levels of L-threo-DOPS” value (after oral ingestion) is 3 h. Moreover, the “Time of peak NE levels” value (after oral ingestion of L-threo-DOPS, norepinephrine in plasma) is 5 h.
As to `N[C@H](C(=O)O)[C@H](O)c1ccc(O)c(O)c1` [threo-DOPS, Threo-3-(3,4-dihydroxyphenyl)serine], the “Specific uptake in microvessel preparations” value in data set [1] is reported as “Specific uptake”.
